# “Also recorded” adds a separate entry of the source. Like-named read-outs stand apart in the source and are kept apart here.
# Columns and labels:
# B. anthracis (Sterne) = system: B. anthracis (Sterne); parameters: species or system Bacillus anthracis; settings: in vivo
# [1] = system: BACS proteolytic activity; type: biochemical, B. anthracis
# [2] = system: hemorrhagic activity of B. anthracis culture supernatant (BACS); parameters: species or system B. anthracis (delta Ames); settings: in vivo, sc
# [3] = mouse, in vivo
molecule,measurement,setting,value
O=C(O)c1cn(C2CC2)c2cc(N3CCNCC3)c(F)cc2c1=O [ciprofloxacin],effectiveness of treatment,B. anthracis (Sterne),ineffective
same,survival,B. anthracis (Sterne),20%
same,survival (effectiveness),B. anthracis (Sterne),70%
same,survival,B. anthracis (Sterne); ip,20%
"c1cnc2c(c1)ccc1cccnc12 [phenanthroline, 1,10-phenanthroline]",inhibition of hydrolysis of gelatin and casein by BACS,[1],inhibited
CC[C@@H](C)[C@@H](O)[C@H](C)C(=O)[C@H](C)/C=C(\C)C[C@H](C)[C@@H]1OC(=O)[C@H]1CC [ebelactone B],effect on survival / protection,B. anthracis (Sterne),did not increase survival over the effects of doxycycline alone
CC(C)C[C@H](NP(=O)(O)O[C@@H]1O[C@@H](C)[C@H](O)[C@@H](O)[C@H]1O)C(=O)N[C@@H](Cc1c[nH]c2ccccc12)C(=O)O [phosphoramidon],suppression of hemorrhagic effect of BACS,[2],effective; also recorded: effectively abrogated
same,inhibition of hydrolysis of gelatin and casein by BACS,[1],inhibited
C[C@H]1c2cccc(O)c2C(=O)C2=C(O)[C@]3(O)C(=O)C(C(N)=O)=C(O)[C@@H](N(C)C)[C@@H]3[C@@H](O)[C@@H]21 [doxycycline],survival,B. anthracis (Sterne); ip,30%
"O=C(O)CN(CCN(CC(=O)O)CC(=O)O)CC(=O)O [EDTA, ethylenediaminetetraacetic acid]",suppression of hemorrhagic effect of BACS,[2],effectively abrogated
"SBTI (protein, UniProt P01070 25-205, looked up) Trypsin inhibitor A: DFVLDNEGNPLENGGTYYILSDITAFGGIRAAPTGNERCPLTVVQSRNELDKGIGTIISSPYRIRFIAEGHPLSLKFDSFAVIMLCVGIPTEWSVVEDLPEGPAVKIGENKDAMDGWFRLERVSDDEFNNYKLVFCPQQAEDDKCGDIGISIDHDDGTRRLVVSKNKPLVVQFQKLDKESL",suppression of hemorrhagic effect of BACS,[2],effectively abrogated
"thermolysin: thermolysin (EC 3.4.24.27) from Bacillus thermoproteolyticus (protein, UniProt P00800 233-548, looked up) Thermolysin: ITGTSTVGVGRGVLGDQKNINTTYSTYYYLQDNTRGNGIFTYDAKYRTTLPGSLWADADNQFFASYDAPAVDAHYYAGVTYDYYKNVHNRLSYDGNNAAIRSSVHYSQGYNNAFWNGSQMVYGDGDGQTFIPLSGGIDVVAHELTHAVTDYTAGLIYQNESGAINEAISDIFGTLVEFYANKNPDWEIGEDVYTPGISGDSLRSMSDPAKYGDPDHYSKRYTGTQDNGGVHINSGIINKAAYLISQGGTHYGVSVVGIGRDKLGKIFYRALTQYLTPTSNFSQLRAAAVQSATDLYGSTSQEVASVKQAFDAVGVK",dose range in which hemorrhagic activity was detectable,[3],10 to 100 µg
